Assay results reported in ChEMBL document CHEMBL3046694, “3D QSAR STUDIES OF INHIBITORS OF EPIDERMAL GROWTH FACTOR RECEPTOR [EGFR] USING CoMFA AND GFA METHODOLOGIES” (Med Chem Res, 2004).

target: Epidermal growth factor receptor (Homo sapiens, UniProt P00533); assay: Inhibition of EGFR (unknown origin)
Sequence (P00533 whole entry): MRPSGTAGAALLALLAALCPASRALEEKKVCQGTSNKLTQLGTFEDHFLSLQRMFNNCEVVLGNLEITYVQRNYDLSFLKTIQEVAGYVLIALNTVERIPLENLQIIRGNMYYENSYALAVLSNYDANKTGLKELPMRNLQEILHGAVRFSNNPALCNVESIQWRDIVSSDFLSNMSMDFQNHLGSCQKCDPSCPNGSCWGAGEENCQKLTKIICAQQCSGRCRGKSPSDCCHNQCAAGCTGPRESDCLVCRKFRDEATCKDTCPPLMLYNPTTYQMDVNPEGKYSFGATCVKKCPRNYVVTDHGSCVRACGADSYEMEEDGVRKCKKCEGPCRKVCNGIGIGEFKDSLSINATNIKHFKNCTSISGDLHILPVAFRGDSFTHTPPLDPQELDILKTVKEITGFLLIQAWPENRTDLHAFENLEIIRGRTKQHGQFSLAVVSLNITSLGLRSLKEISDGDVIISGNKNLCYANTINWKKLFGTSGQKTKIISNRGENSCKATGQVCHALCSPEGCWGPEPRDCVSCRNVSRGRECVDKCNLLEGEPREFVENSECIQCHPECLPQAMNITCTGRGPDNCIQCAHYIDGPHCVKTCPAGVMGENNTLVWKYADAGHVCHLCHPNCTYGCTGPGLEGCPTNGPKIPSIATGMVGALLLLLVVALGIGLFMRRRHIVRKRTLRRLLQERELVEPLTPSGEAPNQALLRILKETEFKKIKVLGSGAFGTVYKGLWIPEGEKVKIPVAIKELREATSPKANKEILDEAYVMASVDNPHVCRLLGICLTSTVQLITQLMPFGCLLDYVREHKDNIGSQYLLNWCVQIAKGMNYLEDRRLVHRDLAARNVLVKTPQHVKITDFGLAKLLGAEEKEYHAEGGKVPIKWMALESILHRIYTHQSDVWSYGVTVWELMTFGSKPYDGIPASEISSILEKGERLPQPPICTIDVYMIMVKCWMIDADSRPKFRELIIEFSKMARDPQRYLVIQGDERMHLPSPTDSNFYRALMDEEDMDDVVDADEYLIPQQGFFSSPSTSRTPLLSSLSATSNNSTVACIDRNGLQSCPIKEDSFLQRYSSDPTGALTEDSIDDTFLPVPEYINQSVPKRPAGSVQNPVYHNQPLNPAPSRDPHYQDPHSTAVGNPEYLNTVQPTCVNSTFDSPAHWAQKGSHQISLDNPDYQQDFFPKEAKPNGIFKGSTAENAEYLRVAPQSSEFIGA

Row | IC50 [nM] | Compound
1 | 560 | C=C(CN(C)C)C(=O)Nc1cc2c(Nc3ccc(F)c(Cl)c3)c(C#N)cnc2cc1OCC
2 | 310 | CN(C)C/C=C/C(=O)Nc1ccc2ncc(C#N)c(Nc3cccc(Br)c3)c2c1
3 | 150 | COC[C@@H]1CCCN1CC#CC(=O)Nc1ccc2ncc(C#N)c(Nc3cccc(Br)c3)c2c1
4 | 130 | CCCNCC#CC(=O)Nc1ccc2ncc(C#N)c(Nc3cccc(Br)c3)c2c1
5 | 90 | COc1cc2ncc(C#N)c(Nc3cccc(Br)c3)c2cc1NC(=O)C#CCN(C)C
6 | 930 | COCCOCC#CC(=O)Nc1ccc2ncc(C#N)c(Nc3cccc(Br)c3)c2c1
7 | 940 | CC#CC(=O)Nc1ccc2ncc(C#N)c(Nc3cccc(Br)c3)c2c1
8 | 791 | COCC#CC(=O)Nc1cc2c(Nc3cccc(Br)c3)c(C#N)cnc2cc1OC
9 | 650 | CN(C)C/C=C/C(=O)Nc1ccc2ncc(C#N)c(Nc3ccc(F)c(Cl)c3)c2c1
10 | 190 | CC#CC(=O)Nc1cc2c(Nc3cccc(Br)c3)c(C#N)cnc2cc1OC
11 | 790 | COc1cc2ncc(C#N)c(Nc3cccc(Br)c3)c2cc1NC(=O)/C=C/CN(C)C
12 | 590 | C=CC(=O)Nc1ccc2ncc(C#N)c(Nc3cccc(Br)c3)c2c1
13 | 960 | COCC#CC(=O)Nc1ccc2ncc(C#N)c(Nc3cccc(Br)c3)c2c1
14 | 810 | C=CC(=O)Nc1cc2c(Nc3cccc(Br)c3)c(C#N)cnc2cc1OC

Row | Compound | IC50 [nM]
15 | N#Cc1cnc2ccc(NC(=O)C#CCN3CCSCC3)cc2c1Nc1cccc(Br)c1 | 550
